Data as given in patent US10407691B2 (priority 2014, dated 2019).
Entries after “also recorded” stand apart in the source; their conditions may differ. Non-standard residues stand in square brackets, D forms with d. Residues, ends and D or L forms follow the SMILES beside them. sY = N[C@@H](Cc1ccc(OS(=O)(=O)O)cc1)C(=O)O

Key:
Arabidopsis seedlings [1] = tested on: Arabidopsis seedlings; design: species or system Arabidopsis thaliana; conditions: in vivo
XA21 [2] = target: T1, XA21 (Oryza sativa subsp. indica, UniProt Q1MX30); experiment: cell-based; type: cell-based, Oryza sativa ssp. japonica
T1 sequence (Q1MX30 24-1025 limits assumed): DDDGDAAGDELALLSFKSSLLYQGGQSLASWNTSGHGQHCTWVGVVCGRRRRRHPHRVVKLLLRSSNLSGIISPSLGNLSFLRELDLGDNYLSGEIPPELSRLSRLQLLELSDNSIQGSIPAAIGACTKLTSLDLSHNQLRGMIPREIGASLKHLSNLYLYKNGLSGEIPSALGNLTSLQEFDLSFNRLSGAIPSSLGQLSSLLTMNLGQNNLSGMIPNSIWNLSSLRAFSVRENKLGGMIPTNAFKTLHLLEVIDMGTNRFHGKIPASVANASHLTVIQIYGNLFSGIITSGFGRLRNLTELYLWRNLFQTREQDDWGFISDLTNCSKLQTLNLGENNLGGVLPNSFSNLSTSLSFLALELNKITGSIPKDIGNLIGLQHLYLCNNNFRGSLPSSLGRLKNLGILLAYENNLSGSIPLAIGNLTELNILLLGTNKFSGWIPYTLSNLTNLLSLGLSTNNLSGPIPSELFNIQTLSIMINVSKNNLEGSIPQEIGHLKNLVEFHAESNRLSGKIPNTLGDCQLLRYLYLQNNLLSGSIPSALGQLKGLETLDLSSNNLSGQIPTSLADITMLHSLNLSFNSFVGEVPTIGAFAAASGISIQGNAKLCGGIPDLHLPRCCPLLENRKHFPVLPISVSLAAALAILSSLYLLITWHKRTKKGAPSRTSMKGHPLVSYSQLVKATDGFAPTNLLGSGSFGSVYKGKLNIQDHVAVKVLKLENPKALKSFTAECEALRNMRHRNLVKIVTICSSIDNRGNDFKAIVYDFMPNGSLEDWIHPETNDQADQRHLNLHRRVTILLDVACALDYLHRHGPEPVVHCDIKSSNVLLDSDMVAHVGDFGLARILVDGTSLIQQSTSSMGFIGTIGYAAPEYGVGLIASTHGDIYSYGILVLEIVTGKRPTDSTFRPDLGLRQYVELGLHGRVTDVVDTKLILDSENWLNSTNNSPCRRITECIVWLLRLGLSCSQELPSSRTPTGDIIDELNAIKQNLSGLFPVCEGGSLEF

XA21 [3] = target: T1, XA21; type: cell-based, Oryza sativa ssp. japonica
XA21 [4] = target: T1, XA21; type: cell-based, Oryza sativa ssp. japonica; remark: listed apart in the source
Arabidopsis seedlings [5] = tested on: Arabidopsis seedlings; design: species or system Arabidopsis thaliana; conditions: in vivo; remark: listed apart in the source
tpst-1 seedlings = tested on: tpst-1 seedlings; design: species or system Arabidopsis thaliana; conditions: in vivo
rice seedlings = tested on: rice seedlings; design: species or system Oryza sativa sp. japonica; conditions: in vivo

“LWKHVGGGDY^SPPSGPNTKHDPPPP [RaxX24-Xoc-sY]” was tested, and the root growth promotion (Arabidopsis seedlings [1]) was “promoted root growth on Arabidopsis seedlings in a manner similar to that of RaxX21-sY; also recorded: still capable of inducing root growth”.
“DY^SPAPGANPRHNPKRPPG [OsPSY1a, reference compound]” was tested, and the “ROS production over 90 min” value (XA21 [2]) was “failed to induce ROS production”.
With `CC(C)C[C@H](NC(=O)[C@H](CCCNC(=N)N)NC(=O)[C@H](CCC(N)=O)NC(=O)[C@H](CC(=O)O)NC(=O)[C@H](CC(C)C)NC(=O)[C@@H]1CCCN1C(=O)[C@H](CCC(=O)O)NC(=O)[C@@H]1CCCN1C(=O)[C@H](CCCNC(=N)N)NC(=O)CNC(=O)[C@@H](N)CCCCN)C(=O)N[C@@H](Cc1c[nH]c2ccccc12)C(=O)N[C@@H](CCCCN)C(=O)N[C@@H](Cc1c[nH]cn1)C(=O)N[C@H](C(=O)NCC(=O)NCC(=O)NCC(=O)N[C@@H](CC(=O)O)C(=O)N[C@@H](Cc1ccc(OS(=O)(=O)O)cc1)C(=O)N1CCC[C@H]1C(=O)N1CCC[C@H]1C(=O)N1CCC[C@H]1C(=O)NCC(=O)N[C@@H](C)C(=O)N[C@@H](CC(N)=O)C(=O)N1CCC[C@H]1C(=O)N[C@@H](CCCCN)C(=O)N[C@@H](Cc1c[nH]cn1)C(=O)N[C@@H](CC(=O)O)C(=O)N1CCC[C@H]1C(=O)N1CCC[C@H]1C(=O)N1CCC[C@H]1C(=O)N[C@@H](CCCNC(=N)N)C(=O)N[C@@H](CC(N)=O)C(=O)N1CCC[C@H]1C(=O)NCC(=O)N[C@@H](Cc1c[nH]cn1)C(=O)N[C@@H](Cc1c[nH]cn1)C(=O)O)C(C)C` [RaxX39-sY] the “defense gene expression (PR10b and Os06g37224)” value (XA21 [3]) was “triggers defense gene expression in an XA21-dependent manner; also recorded: activates XA21-mediated defense gene expression” and the “XA21-mediated defense responses (ability to activate XA21-dependent signaling)” value (“XA21-mediated defense responses” below) (XA21 [2]) was “trigger XA21-mediated defense responses”.
For LWKHVGGGDYPPPGANPK [RaxX18-sY], the “ROS production dose response (activity)” value (XA21 [2]) was “completely inactive”, the “XA21-mediated defense responses” value (XA21 [2]) was “do not” and the “total ROS production over 3 h” value (XA21 [2]) was “compromised in this activity”.
In the case of HVGGGDYPPPGANPKHDPPPR [RaxX21-Y], the ethylene production (XA21 [4]) is reported as “not” and the “dose dependent activity on root growth” value (Arabidopsis seedlings [1]) is reported as “promoted root growth, but was less active than the sulfated version”.
In the case of “LWKHVGGGDY^SPPPGANTKHDPPPK [RaxX24-Xe-sY]”, the root growth promotion (Arabidopsis seedlings [1]) is reported as “promoted root growth on Arabidopsis seedlings in a manner similar to that of RaxX21-sY”.
In the case of Y^SIY^STQ [PSK, reference compound], the “effect on elf18-triggered growth inhibition” value (Arabidopsis seedlings [5]) is reported as “attenuates elf18-mediated growth inhibition”, the “ROS production over 90 min” value (XA21 [2]) is reported as “failed to activate XA21-mediated immune response” and the “dose dependent activity on root growth” value (Arabidopsis seedlings [1]) is reported as “comparable”.
`CC(C)C[C@H](N)C(=O)N[C@@H](Cc1c[nH]c2ccccc12)C(=O)N[C@@H](CCCCN)C(=O)N[C@@H](Cc1c[nH]cn1)C(=O)N[C@H](C(=O)NCC(=O)NCC(=O)NCC(=O)N[C@@H](CC(=O)O)C(=O)N[C@@H](Cc1ccc(OS(=O)(=O)O)cc1)C(=O)N1CCC[C@H]1C(=O)N1CCC[C@H]1C(=O)N1CCC[C@H]1C(=O)NCC(=O)N[C@@H](C)C(=O)N[C@@H](CC(N)=O)C(=O)N1CCC[C@H]1C(=O)N[C@@H](CCCCN)C(=O)N[C@@H](Cc1c[nH]cn1)C(=O)N[C@@H](CC(=O)O)C(=O)N1CCC[C@H]1C(=O)N1CCC[C@H]1C(=O)N1CCC[C@H]1C(=O)N[C@@H](CCCNC(=N)N)C(=O)O)C(C)C` [RaxX24-sY] was tested, and the EC50 (XA21 [2]) was ~30 nM, the “XA21-mediated defense responses” value (XA21 [2]) was “trigger XA21-mediated defense responses” and the “total ROS production over 3 h” value (XA21 [2]) was “confirmed”.
`CC(C)[C@H](NC(=O)[C@@H](N)Cc1c[nH]cn1)C(=O)NCC(=O)NCC(=O)NCC(=O)N[C@@H](CC(=O)O)C(=O)N[C@@H](Cc1ccc(OS(=O)(=O)O)cc1)C(=O)N1CCC[C@H]1C(=O)N1CCC[C@H]1C(=O)N1CCC[C@H]1C(=O)NCC(=O)N[C@@H](C)C(=O)N[C@@H](CC(N)=O)C(=O)N1CCC[C@H]1C(=O)N[C@@H](CCCCN)C(=O)N[C@@H](Cc1c[nH]cn1)C(=O)N[C@@H](CC(=O)O)C(=O)N1CCC[C@H]1C(=O)N1CCC[C@H]1C(=O)N1CCC[C@H]1C(=O)N[C@@H](CCCNC(=N)N)C(=O)O` [RaxX21-sY, HVGGGDY^SPPPGANPKHDPPPR] (H-HVGGGD[sY]PPPGANPKHDPPPR-OH) was tested, and the “effect on elf18-triggered growth inhibition” value (Arabidopsis seedlings [5]) was “do not prevent elf18-triggered growth inhibition”, the root growth rate (tpst-1 seedlings) was “increased root growth rate” and the defense gene expression (XA21 [3]) was “significant RaxX21-sY-mediated upregulation of defense gene expression and ROS production; also recorded: activates gene expression”. For the same molecule, the “defense gene induction (Os06g37224)” value (XA21 [3]) was “induced ROS production and defense gene expression changes”, the “defense marker gene expression (Os04g10100, PR10b, Os12g36830, Os06g37224), temporal changes” value (XA21 [3]) was “able to activate; also recorded: sufficient to activate XA21-mediated defense gene expression” and the root growth (rice seedlings) was “significantly enhanced root growth; also recorded: promotes root growth in Arabidopsis and rice”. For the same molecule, the root length (rice seedlings) was “significantly longer roots”, the ethylene production (XA21 [4]) was “able to activate” and the ROS production (XA21 [2]) was “significant RaxX21-sY-mediated upregulation of defense gene expression and ROS production; also recorded: induced ROS production and defense gene expression changes; also recorded: activates the production of ROS”. For the same molecule, the “ROS production over 90 min” value (XA21 [2]) was “triggered a ROS response characteristic of the XA21-mediated immune response”, the “XA21-mediated defense responses” value (XA21 [2]) was “trigger XA21-mediated defense responses” and the “total ROS production over 3 h” value (XA21 [2]) was “retained the ability to induce XA21-dependent signaling; also recorded: able to activate”. For the same molecule, the average root length (Arabidopsis seedlings [1]) was 61 mm, the “dose dependent activity on root growth” value (Arabidopsis seedlings [1]) was “effective at inducing root growth at concentrations in the low nanomolar range” and the root growth promotion (Arabidopsis seedlings [1]) was “promoted root growth in a similar manner to that observed for AtPSY1; also recorded: promotes root growth in Arabidopsis and rice”. The root length (Arabidopsis seedlings [1]) was “statistically longer root lengths”.
“DY^SGDPSANPKHDPGVPPS [AtPSY1, reference compound]” was tested, and the “effect on elf18-triggered growth inhibition” value (Arabidopsis seedlings [5]) was “do not prevent elf18-triggered growth inhibition”, the root growth rate (tpst-1 seedlings) was “increased root growth rate” and the root growth (rice seedlings) was “significantly enhanced root growth”. For the same molecule, the “ROS production over 90 min” value (XA21 [2]) was “failed to induce ROS production”, the “dose dependent activity on root growth” value (Arabidopsis seedlings [1]) was “less active than RaxX21-sY and PSK” and the root growth (Arabidopsis seedlings [1]) was “increased root growth in a similar manner to that observed for treatment of wild type Col-0 seedlings; also recorded: also responds”.
DY^SPPPGANPKHDPPPR [RaxX16-sY] was tested, and the root growth (rice seedlings) was “still capable of promoting root growth”, the “ROS production over 90 min” value (XA21 [2]) was “triggered a ROS response characteristic of the XA21-mediated immune response; also recorded: able to recognize” and the root growth promotion (Arabidopsis seedlings [1]) was “still capable of promoting root growth”.
For DY^SPPPGANPKHDP [RaxX13-sY], the root growth (rice seedlings) was “still capable of promoting root growth”, the “ROS production over 90 min” value (XA21 [2]) was “did not induce ROS production” and the root growth promotion (Arabidopsis seedlings [1]) was “still capable of promoting root growth”.
“LWKHVGGGDY^SAPPGSNDRHDPPKP [RaxX24-Xcm-sY]” was tested, and the root growth promotion (Arabidopsis seedlings [1]) was “promoted root growth on Arabidopsis seedlings in a manner similar to that of RaxX21-sY”.
“KGRPEPLDQRLWKHVGGGDYPPPGANPKHDPPPRNPGHH [RaxX39-Y]” was tested, and the “defense gene expression (PR10b and Os06g37224)” value (XA21 [3]) was “does not”.
